Consider 5 compounds from patent US20080300298A1, “Honokiol Derivates For the Treatment of Proliferative Disorders” (priority 2005, published 2008).

One series relates to HIV-1. Put plainly: HIV assay in PBM cells (RT activity). The following applies: HIV-1 in human PBM cells. Type of series: cell-based. The method, then: The antiviral activity of the synthesized compounds and honokiol were evaluated against HIV-1 in human peripheral blood mononuclear (PBM) cells (Table 4).
Human peripheral blood mononuclear (PBM) cells (which can be obtained from Atlanta Red Cross) can be isolated by Ficoll-Hypaque discontinuous gradient centrifugation from healthy seronegative donors. Cells can be stimulated with phytohemagglutinin A (Difco, Sparks, Md.) for 2-3 days prior to use. HIV-1, such as HIV-1LAI can be obtained from the Centers for Disease Control and Prevention (Atlanta, Ga.), and can be used as the standard reference virus for the antiviral assays. The molecular infectious clones HIV-1xxBru and HIV-1M184Vpin can be obtained from Dr. John Mellors (University of Pittsburgh). Infections can be done in bulk for one hour, either with 100 TCID50/1×10^7 cells for a flask (T25) assay or with 200 TCID50/6×10^5 cells/well for a 24 well plate assay. Cells can be added to a plate or flask containing a ten-fold serial dilution of the test compound. Assay medium can be RPMI-1640 supplemented with heat inactivated 16% fetal bovine serum, 1.6 mM L-glutamine, 80 IU/ml penicillin, 80 μg/ml streptomycin, 0.0008% DEAE-Dextran, 0.045% sodium bicarbonate, and 26 IU/ml recombinant interleukin-2 (Chiron Corp, Emeryville, Calif.). AZT can be used as a positive control for the assay. Untreated and uninfected PBM cells can be grown in parallel at equivalent cell concentrations as controls. The cell cultures can be maintained in a humidified 5% CO2-air at 37° C. for 5 days and supernatants can be collected for reverse transcriptase (RT) activity.
Supernatants can be centrifuged at 12,000 rpm for 2 hours to pellet the virus. The pellet can be solubilized with vortexing in 100 μl virus solubilization buffer (VSB) containing 0.5% Triton X-100, 0.8 M NaCl, 0.5 mM phenylmethylsulfonyl fluoride, 20% glycerol, and 0.05 M Tris, pH 7.8. Ten μL of each sample can be added to 75 μL RT reaction mixture (0.06 M Tris, pH 7.8, 0.012 M MgCl2, 0.006 M dithiothreitol, 0.006 mg/ml poly (rA)n, oligo (dT)12-18, 96 μg/ml dATP, and 1 μM of 0.08 mCi/ml ^3H-thymidine triphosphate (Moravek Biochemicals, Brea, Calif.) and can be incubated at 37° C. for 2 hours. The reaction can be stopped by the addition of 100 μL 10% trichloroacetic acid containing 0.05% sodium pyrophosphate. The acid insoluble product can be harvested onto filter paper using a Packard Harvester (Meriden, Conn.), and the RT activity can be read on a Packard Direct Beta Counter (Meriden, Conn.). The RT results can be expressed in counts per minute (CPM) per milliliter. The antiviral 50% effective concentration (EC50) and 90% effective concentration (EC90) can be determined from the concentration-response curve using the median effect method (Belen'kii, S. M.; Schinazi, R. S. Multiple drug effect analysis with confidence interval. Antiviral. Res. 1994, 25, 1-11).

The test system of another series is PBM cells. In words: cytotoxicity assay (MTT). In kind it is cell-based, human. The protocol:
(§1) The cytotoxicity of the honokiol and analogues thereof were assessed in human PBM, CEM and Vero cells (Table 4). Compounds can be evaluated for their potential toxic effects on uninfected human PBM cells, in CEM (T-lymphoblastoid cell line obtained from American Type Culture Collection, Rockville, Md.) and Vero (African green monkey kidney) cells. PBM cells can be obtained from whole blood of healthy seronegative donors (HIV-1) by single-step Ficoll-Hypaque discontinous gradient centrifugation. […] All of the cells can be plated in 96-well cell culture plates containing ten-fold serial dilutions of the test drug. […] At the end of incubation, MTT tetrazolium dye solution (Cell titer 96®, Promega, Madison, Wis.) can be added to each well and incubated overnight. The reaction can be stopped with stop solubilization solution (Promega, Madison, Wis.). […] The plates can be read at a wavelength of 570 nm using an ELISA plate reader (Bio-tek instruments, Inc., Winooski, Vt., Model #EL 312e). The 50% inhibition concentration (IC50) can be determined from the concentration-response curve using the median effect method.

The test system of series [1] is CEM (T-lymphoblastoid cell line). Put plainly: cytotoxicity assay (MTT). Type of series: cell-based. The method, then: as §1
Series [2] concerns SVR (a transformed endothelial cell line). In words: SVR cellular proliferation assay. In kind it is cell-based. The conditions noted are these: Mus musculus, SVR cells; for inhibition at 10 µg/mL: 10 μg/mL; for inhibition at 15 µg/mL: 15 μg/mL. The protocol: The SVR (a transformed endothelial cell line) proliferation assay can be used as a direct measure of antiangiogenic and antitumor activity. This assay serves as a high throughput screen that compares the effects of a compound on proliferation of SVR cells versus an immortalized endothelial cell line, MS1. […] SVR cells were plated in 24-well dishes. The next day, the medium was replaced with fresh medium containing the inhibitors or vehicle controls. Cells were incubated at 37° C. for 72 h (Arbiser, J. L., et al. 1999 J. Am. Acad. Dermatol. 40, 925-929; LaMontagne, K. R., et al. 2000 Am. J. Pathol. 157, 1937-1945), and cell number was determined in triplicate using a Coulter Counter (Hialeah, Fla.). Immortalized and K-Ras transformed rat epithelial cells (RIEpZip and […]) and fibroblasts (NIH3T3 pZip and NIH3T3 pZipK-Ras12V) were maintained at 37° C., 10% CO2, in Dulbecco's modified Eagle's medium supplemented with 5% fetal calf serum (RIE) or 10% calf serum (NIH3T3) (Oldham, S. M., et al. 1996 Proc. Natl. Acad. Sci. U.S.A. 93, 6924-6928; Pruitt, K., et al. 2000 J. Biol. Chem. 275, 40916-40924). Cells were plated at 10^5/well in six-well plates.

Series [3] is described as follows: toxicity in mice (Table 5). The following applies: mouse, in vivo. The text has this: In vivo models of cancer growth include xenografts of human tumor cells injected into animals, such as mice, particularly immunocomprimised mice. Toxicity of the compounds can also be assessed in these assays through daily administration of the compounds to the animals combined with daily monitoring of the animals. The animals can also be monitored for two weeks to look for weight loss, as well as other common toxicities known to one skilled in the art, such as altered grooming, decreased movement of mice, and tremor. The compounds can also be tested for their ability to inhibit tumor growth in animals. SVR angiosarcoma tumor cells, for example, can be injected into animals, such as immunocompromised mice. Mice can be injected with approximately one million SVR cells subcutaneously, and when tumors become palpable, can be treated with a beginning dose (such as 120 mg/kg intraperitoneally) once daily. Drugs that are active at 120 mg/kg can then be retested at lower doses of 80 mg/kg, 40 mg/kg, etc. Tumor volume can be calculated using the formula (w2×L)0.52, where w (width) represents the smallest dimension of the tumor. Mice can be treated for a period of time such as approximately 30 days, or until tumor growth reaches 1 cm^3.

pEC50: −log10 of the molar value.

With `Cc1cn([C@H]2C[C@H](N=[N+]=[N-])[C@@H](CO)O2)c(=O)[nH]c1=O` [AZT, reference compound], the negative logarithm of the EC50 (pEC50) is 7.85 in the series on HIV-1 (read-out: Activity anti-VIH-1 on PBM cells EC50), under 4.00 with PBM cells and 4.84 in series [1]. Besides, the concentration for an effect of 90% (EC90) in the series on HIV-1 (read-out: Activity anti-VIH-1 on PBM cells EC90) is 49 nM.

With `C=CCc1cc(Cc2ccc(O)c(CC=C)c2)ccc1O`, in series [2], the inhibition at 10 µg/mL came to 75.5% and the inhibition at 15 µg/mL was 73.7%. The Toxicity entry in series [3] was “Toxic”.

In series [2], `C=CCc1cc(/C(CC)=C(\CC)c2ccc(O)c(CC=C)c2)ccc1O` registered an inhibition at 10 µg/mL of 68.4% and an inhibition at 15 µg/mL of 89.3%. Also, the Toxicity result in series [3] is recorded as “Toxic”.

In series [2], `C=CCc1cc(-c2ccc(O)c(CC=C)c2)ccc1O` [drawing 56] returned an inhibition at 10 µg/mL of 44.9% and an inhibition at 15 µg/mL of 56.2%. Further, the Toxicity result in series [3] is recorded as “Toxic”.

Take `C=CCC1=C(CC=C)C(=O)c2ccccc2C1=O`: in series [2], testing at 10 µg/mL gave an inhibition of 87.5% and the inhibition at 15 µg/mL turned out to be 91.5%. Moreover, the Toxicity result in series [3] was “Toxic”.
